Experiments:
p-AXL = target: T1, p-AXL (Homo sapiens, UniProt P30530); experiment: Axl phosphorylation inhibition ELISA in HEK293T cells transfected with NanoLuc-tagged AXL; format: cell-based; details: 1 h compound incubation, media (OptiMEM)
T1 construct: expressed in transfected cells; host or cells: HEK293T
T1 sequence (P30530 26-894): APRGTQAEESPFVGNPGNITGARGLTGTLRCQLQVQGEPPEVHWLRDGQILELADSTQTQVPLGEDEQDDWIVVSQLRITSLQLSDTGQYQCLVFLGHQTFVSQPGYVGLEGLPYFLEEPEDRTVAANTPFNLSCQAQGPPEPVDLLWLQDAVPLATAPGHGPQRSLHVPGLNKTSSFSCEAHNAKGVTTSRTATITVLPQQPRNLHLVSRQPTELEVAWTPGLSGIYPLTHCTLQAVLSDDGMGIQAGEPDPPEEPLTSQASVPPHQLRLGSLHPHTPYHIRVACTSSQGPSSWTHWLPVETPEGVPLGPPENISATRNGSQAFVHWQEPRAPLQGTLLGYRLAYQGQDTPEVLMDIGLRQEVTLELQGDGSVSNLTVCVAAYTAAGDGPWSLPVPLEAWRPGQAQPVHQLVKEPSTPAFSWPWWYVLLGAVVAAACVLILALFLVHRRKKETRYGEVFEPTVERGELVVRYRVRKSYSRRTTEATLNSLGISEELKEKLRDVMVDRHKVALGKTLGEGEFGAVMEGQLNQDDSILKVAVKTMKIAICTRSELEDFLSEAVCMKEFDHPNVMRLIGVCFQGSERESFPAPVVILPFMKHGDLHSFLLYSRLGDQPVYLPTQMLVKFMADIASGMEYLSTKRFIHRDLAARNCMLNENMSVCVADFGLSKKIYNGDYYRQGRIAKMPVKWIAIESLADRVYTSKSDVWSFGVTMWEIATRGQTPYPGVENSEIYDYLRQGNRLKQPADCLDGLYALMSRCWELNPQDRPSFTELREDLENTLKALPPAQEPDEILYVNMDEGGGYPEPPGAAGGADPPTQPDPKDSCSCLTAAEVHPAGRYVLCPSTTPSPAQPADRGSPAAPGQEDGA
Summary of the method: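 HEK293T cells transiently transfected one day earlier with NanoLuc-tagged AXL were exposed to 22-point 2-fold compound dilutions for 1 h at 37° C (70,000 cells/well), then lysed. Lysates captured on anti-phospho-tyrosine coated plates for 2 h; bound p-AXL read by NanoLuc luminescence; IC50 from 4-parameter logistic fit.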

Axl = target: T2, Axl (Homo sapiens, UniProt P30530); experiment: Biochemical potency, HTRF KinEASE-TK kinase assay; set-up: purchased Invitrogen; details: 5 nM AXL, 700 μM ATP
T2 sequence (P30530 26-894): T1 sequence (P30530 26-894)
Summary of the method: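 Compounds preincubated 1 h at RT with enzyme in 50 mM HEPES pH 7.4, 10 mM MgCl2, 0.01% BSA, 1 mM DTT; reactions then ran 2 h at RT with 5 nM AXL or 1 nM TYRO3/MER, 800 nM TK substrate-biotin, 700 μM ATP, 1% DMSO. HTRF 665/620 ratio read; percent activity calculated.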

| SMILES | IC50 (p-AXL) [nM] | IC50 (Axl) [nM] |
| --- | --- | --- |
| FC(F)(F)Oc1cccnc1-c1ccc(-c2c[nH]c3ncc(-c4ccc5c(c4)CC[C@@H](N4C6COCC4C6)CC5)cc23)cc1 [Example 103, 6-[(7S)-2-(3-{4-[3-(Trifluoromethoxy)pyridin-2-yl]phenyl}-1H-pyrrolo[2,3-b]pyridin-5-yl)-6,7,8,9-tetrahydro-5H-benzo[7]annulen-7-yl]-3-oxa-6-azabicyclo[3.1.1]heptane] | > 1000 | < 100 |
| c1ccc(-n2cc(-c3n[nH]c4ncc(-c5ccc6c(c5)CC[C@@H](N5C7COCC5C7)CC6)cc34)cn2)nc1 [Example 168, 6-[(7S)-2-{3-[1-(Pyridin-2-yl)-1H-pyrazol-4-yl]-1H-pyrazolo[3,4-b]pyridin-5-yl}-6,7,8,9-tetrahydro-5H-benzo[7]annulen-7-yl]-3-oxa-6-azabicyclo[3.1.1]heptane] | 100 to 1000 | < 100 |
| Cc1cc(F)cnc1-c1ccc(-c2c[nH]c3ncc(-c4ccc5c(c4)CC[C@@H](N4C6COCC4C6)CC5)cc23)cc1 [Example 29, 6-[(7S)-3-[3-[4-(5-Fluoro-3-methylpyridin-2-yl)phenyl]-1H-pyrrolo[2,3-b]pyridin-5-yl]-6,7,8,9-tetrahydro-5H-benzo[7]annulen-7-yl]-3-oxa-6-azabicyclo[3.1.1]heptane] | 100 to 1000 | < 100 |
| Cc1cccnc1-c1ccc(-c2n[nH]c3ncc(-c4ccc5c(c4)CC[C@@](C)(N4CCC[C@H]4C)CC5)cc23)cc1 [Example 163, 3-Methyl-2-(4-{5-[(7S)-7-methyl-7-[(2R)-2-methylpyrrolidin-1-yl]-6,7,8,9-tetrahydro-5H-benzo[7]annulen-2-yl]-2H-pyrazolo[3,4-b]pyridin-3-yl}phenyl)pyridine] | < 100 | < 100 |
| CS(=O)(=O)c1cccnc1-c1ccc(-c2n[nH]c3ncc(-c4ccc5c(c4)CC[C@@H](N4C6COCC4C6)CC5)cc23)cc1 [Example 101, 6-[(7S)-2-{3-[4-(3-Methanesulfonylpyridin-2-yl)phenyl]-1H-pyrazolo[3,4-b]pyridin-5-yl}-6,7,8,9-tetrahydro-5H-benzo[7]annulen-7-yl]-3-oxa-6-azabicyclo[3.1.1]heptane] | < 100 | < 100 |
| Cn1cnnc1-c1ccc(-c2n[nH]c3ncc(-c4ccc5c(c4)CC[C@@H](N4C6COCC4C6)CC5)cc23)cc1 [Example 169, 6-[(7S)-2-{3-[4-(4-Methyl-4H-1,2,4-triazol-3-yl)phenyl]-1H-pyrazolo[3,4-b]pyridin-5-yl}-6,7,8,9-tetrahydro-5H-benzo[7]annulen-7-yl]-3-oxa-6-azabicyclo[3.1.1]heptane] | < 100 | < 100 |
| Cc1cccnc1-c1ccc(-c2n[nH]c3ncc(-c4ccc5c(c4)CC[C@@](C)(N4CCC[C@H]4C)CC5)cc23)nc1 [Example 105, 3-Methyl-6′-{5-[(7S)-7-methyl-7-[(2R)-2-methylpyrrolidin-1-yl]-6,7,8,9-tetrahydro-5H-benzo[7]annulen-2-yl]-1H-pyrazolo[3,4-b]pyridin-3-yl}-2,3′-bipyridine] | < 100 | < 100 |
| c1cnc(-c2ccc(-c3c[nH]c4ncc(-c5ccc6c(c5)CC[C@@H](N5C7COCC5C7)CC6)cc34)cc2)c(C2CC2)c1 [Example 178, 6-[(7S)-2-{3-[4-(3-Cyclopropylpyridin-2-yl)phenyl]-1H-pyrrolo[2,3-b]pyridin-5-yl}-6,7,8,9-tetrahydro-5H-benzo[7]annulen-7-yl]-3-oxa-6-azabicyclo[3.1.1]heptane] | < 100 | < 100 |
| CS(=O)(=O)c1cccnc1-c1ccc(-c2c[nH]c3ncc(-c4ccc5c(c4)CC[C@@H](N4C6COCC4C6)CC5)cc23)cc1 [Example 102, 6-[(7S)-2-{3-[4-(3-Methanesulfonylpyridin-2-yl)phenyl]-1H-pyrrolo[2,3-b]pyridin-5-yl}-6,7,8,9-tetrahydro-5H-benzo[7]annulen-7-yl]-3-oxa-6-azabicyclo[3.1.1]heptane] | < 100 | < 100 |
| CN(C)C(=O)c1cccc(-c2ccc(-c3n[nH]c4ncc(-c5ccc6c(c5)CC[C@@H](N5C7COCC5C7)CC6)cc34)cc2)n1 [Example 94, N,N-Dimethyl-6-(4-{5-[(7S)-7-{3-oxa-6-azabicyclo[3.1.1]heptan-6-yl}-6,7,8,9-tetrahydro-5H-benzo[7]annulen-2-yl]-2H-pyrazolo[3,4-b]pyridin-3-yl}phenyl)pyridine-2-carboxamide] | 100 to 1000 | < 100 |
| CO[C@H]1C[C@@H](N[C@H]2CCc3ccc(-c4cnc5[nH]nc(-c6ccc(-c7ncccc7C)cc6)c5c4)cc3CC2)C1 [Example 131, (7S)-2-{3-[4-(3-Methylpyridin-2-yl)phenyl]-1H-pyrazolo[3,4-b]pyridin-5-yl}-N-[cis-3-methoxycyclobutyl]-6,7,8,9-tetrahydro-5H-benzo[7]annulen-7-amine] | 100 to 1000 | < 100 |
| C[C@@H]1CCCN1[C@@]1(C)CCc2ccc(-c3cnc4[nH]cc(-c5ccc(-c6ccccn6)cc5)c4c3)cc2CC1 [Example 156, 2-(4-{5-[(7S)-7-Methyl-7-[(2R)-2-methylpyrrolidin-1-yl]-6,7,8,9-tetrahydro-5H-benzo[7]annulen-2-yl]-1H-pyrrolo[2,3-b]pyridin-3-yl}phenyl)pyridine] | 100 to 1000 | < 100 |
| Cc1cccnc1-c1ccc(-c2c[nH]c3ncc(-c4ccc5c(c4)CC[C@@H](N4CCCC4)CC5)cc23)cc1 [Example 173, 3-Methyl-2-(4-{5-[(7S)-7-(pyrrolidin-1-yl)-6,7,8,9-tetrahydro-5H-benzo[7]annulen-2-yl]-1H-pyrrolo[2,3-b]pyridin-3-yl}phenyl)pyridine] | < 100 | < 100 |
| Cc1cc(F)cnc1-c1ccc(-c2n[nH]c3ncc(-c4ccc5c(c4)CC[C@@H](N4C6COCC4C6)CC5)cc23)cc1 [Example 28, 6-[(7S)-3-[3-[4-(5-Fluoro-3-methylpyridin-2-yl)phenyl]-1H-pyrazolo[3,4-b]pyridin-5-yl]-6,7,8,9-tetrahydro-5H-benzo[7]annulen-7-yl]-3-oxa-6-azabicyclo[3.1.1]heptane] | 100 to 1000 | < 100 |
| Cc1ccccc1-c1ccc(-c2c[nH]c3ncc(-c4ccc5c(c4)CC[C@@H](N4C6COCC4C6)CC5)cc23)nc1 [Example 97, 6-[(7S)-2-{3-[5-(2-Methylphenyl)pyridin-2-yl]-1H-pyrrolo[2,3-b]pyridin-5-yl}-6,7,8,9-tetrahydro-5H-benzo[7]annulen-7-yl]-3-oxa-6-azabicyclo[3.1.1]heptane] | > 1000 | < 100 |
| Cc1cncnc1-c1ccc(-c2n[nH]c3ncc(-c4ccc5c(c4)CC[C@@H](N4C6COCC4C6)CC5)cc23)cc1 [Example 174, 6-[(7S)-2-{3-[4-(5-Methylpyrimidin-4-yl)phenyl]-1H-pyrazolo[3,4-b]pyridin-5-yl}-6,7,8,9-tetrahydro-5H-benzo[7]annulen-7-yl]-3-oxa-6-azabicyclo[3.1.1]heptane] | < 100 | < 100 |
| CN(C)C(=O)c1cccnc1-c1ccc(-c2c[nH]c3ncc(-c4ccc5c(c4)CC[C@@H](N4C6COCC4C6)CC5)cc23)cc1 [Example 165, N,N-Dimethyl-2-(4-{5-[(7S)-7-{3-oxa-6-azabicyclo[3.1.1]heptan-6-yl}-6,7,8,9-tetrahydro-5H-benzo[7]annulen-2-yl]-1H-pyrrolo[2,3-b]pyridin-3-yl}phenyl)pyridine-3-carboxamide] | < 100 | < 100 |
| CN(C)C(=O)c1ccccc1-c1ccc(-c2c[nH]c3ncc(-c4ccc5c(c4)CC[C@@H](N4C6COCC4C6)CC5)cc23)cn1 [Example 170, N,N-Dimethyl-2-(5-{5-[(7S)-7-{3-oxa-6-azabicyclo[3.1.1]heptan-6-yl}-6,7,8,9-tetrahydro-5H-benzo[7]annulen-2-yl]-1H-pyrrolo[2,3-b]pyridin-3-yl}pyridin-2-yl)benzamide] | 100 to 1000 | < 100 |
| Cc1nccnc1-c1ccc(-c2n[nH]c3ncc(-c4ccc5c(c4)CC[C@@H](N4C6COCC4C6)CC5)cc23)cc1 [Example 175, 6-[(7S)-2-{3-[4-(3-Methylpyrazin-2-yl)phenyl]-1H-pyrazolo[3,4-b]pyridin-5-yl}-6,7,8,9-tetrahydro-5H-benzo[7]annulen-7-yl]-3-oxa-6-azabicyclo[3.1.1]heptane] | < 100 | < 100 |
